Measured values as given in US20240424019A1, “SHP1 MODIFIED DENDRITIC CELLS AND EXTRACELLULAR VESICLES DERIVED THEREFROM AND ASSOCIATED METHODS” (BOARD OF REGENTS, THE UNIVERSITY OF TEXAS SYSTEM, priority 2021, published 2024).

Legend:
human IFN-γ+CD8+ T cells = test: Coculture of human MoDCs with autologous T cells; assay type: cell-based; conditions: VitE-treated vs vehicle-treated autologous MoDCs
Method: FIG. 2A: Percentage of human IFN-γ^+CD8^+ T cells in CD8^+ T cells in coculture with vehicle or VitE-treated autologous MoDCs (n=3). FIG. 2B: Representative flow cytometric analysis and quantification of antigen-specific OT-1 T cell proliferation stimulated with OVA-loaded mouse BMDCs that were treated with vehicle or VitE at day 3. FIG. 2C: Tumor growth curves of orthotopic EMT6 tumor-bearing mice treated with vehicle (Ctrl), Vitamin E (VitE), or VitE plus Cyt c (10 mg/kg. i.v, every other day starting on day 3) to deplete DCs (n=8/group). The statistical significance is defined by P-value: *P<0.05, **P<0.01, ***P<0.001. ****P<0.0001. Human leukocyte concentrate (buffy coat) was collected from healthy blood donor volunteers by MD Anderson Blood Donor Center. Written informed consent was obtained from all participating blood donors and the use of anonymized leftover specimens for scientific purposes was approved by the Ethics Committee of the MD Anderson Cancer Center. For the generation of monocyte-derived dendritic cells (MoDCs), peripheral blood of healthy individuals was applied to a Ficoll gradient (BD), and mononuclear cells were freshly isolated and cultured in the dish in a humidified incubator for 1 hour to let monocytes adhere. After removing the medium with non-adherent cells, the adherent monocytes were collected through vigorous pipetting. […]

purified SHP1 = purified SHP1 (Homo sapiens, UniProt P29350); test: Microscale thermophoresis (MST) binding assay; conditions: mean of triplicates; read-out: apparent dissociation constant Kd
Method: FIG. 3A: Volcano plot of reverse phase protein array (RPPA) data of mouse BMDCs treated with VitE (50 μg/ml) compared to those treated with vehicle control with tumor conditioned media (TCM) for 48 hours (n=3 independent samples). […] The grey dashed line indicates P-value of 0.05. FIG. 3B: t-SNEs by CyTOF and quantification comparing the intensity of pY564-SHP1 in TADCs from the vehicle-or VitE-treated EMT6 tumors at day 15 post-implantation. FIG. 3C: Top, SHP1 knockdown in BMDCs was effective. Bottom, CFSE-dilution analysis of OT-1 T cells co-cultured with OVA protein-pulsed BMDCs (ratio 10:1) with knockdown of SHP1 by siPtpn6 versus siCtrl (n=3). Right, quantification of OT-1 T-cell numbers under the indicated condition. FIG. 3D: The binding of VitE to purified SHP1 is analyzed by microscale thermophoresis (MST) binding assay. […] FIG. 3E: Relative tyrosine phosphatase activity of SHP1 immunoprecipitated from LPS (100 ng/ml)-activated DC2.4 cells in the presence of indicated doses of VitE (mean of triplicates). FIG. 3F: SHP1 tyrosine phosphatase activity in LPS (100 ng/ml)-activated BMDCs (n=6) treated with vehicle-or VitE (50 μg/ml). Error bars, s.e.m. ns, no significant. *P<0.05, **P<0.01. ***P<0.001, ****P<0.0001. […]

[1] = target: SHP1 immunoprecipitated from LPS-activated DC2.4 cells (UniProt P29351); test: SHP1 phosphatase assay (EnzChek tyrosine phosphatase kit), dose-response; assay type: biochemical, mouse; conditions: SHP1 from LPS (100 ng/ml)-activated DC2.4 cells; read-out: inhibitory tyrosine phosphatase activity IC50
Description: FIG. 3A: […] FIG. 3B: t-SNEs by CyTOF and quantification comparing the intensity of […]-SHP1 in TADCs from the vehicle-or VitE-treated EMT6 tumors at day 15 post-implantation. FIG. 3C: Top, SHP1 knockdown in BMDCs was effective. Bottom, CFSE-dilution analysis of OT-1 T cells co-cultured with OVA protein-pulsed BMDCs (ratio 10:1) with knockdown of SHP1 by […]6 versus siCtrl (n=3). Right, quantification of OT-1 T-cell numbers under the indicated condition. FIG. 3D: The binding of VitE to purified SHP1 is analyzed by microscale thermophoresis (MST) binding assay. […] FIG. 3E: Relative tyrosine phosphatase activity of SHP1 immunoprecipitated from LPS (100 ng/ml)-activated DC2.4 cells in the presence of indicated doses of VitE (mean of triplicates). FIG. 3F: SHP1 tyrosine phosphatase activity in LPS (100 ng/ml)-activated BMDCs (n=6) treated with vehicle-or VitE (50 μg/ml). Error bars, s.e.m. ns, no significant. *P<0.05, **P<0.01. ***P<0.001, ****P<0.0001. We assessed the phosphatase activity of SHP1 by using the RediPlate 96 EnzChek Tyrosine Phosphatase Assay Kit (ThermoFisher). […] We placed beads into RediPlate wells and incubated them for 30 min at 25° C. before reading them for fluorescence. […] The inhibitor dose-response curves were analyzed using normalized IC50 regression curve fitting with control-based normalization.

purified SHP1, sequence (P29350 whole entry): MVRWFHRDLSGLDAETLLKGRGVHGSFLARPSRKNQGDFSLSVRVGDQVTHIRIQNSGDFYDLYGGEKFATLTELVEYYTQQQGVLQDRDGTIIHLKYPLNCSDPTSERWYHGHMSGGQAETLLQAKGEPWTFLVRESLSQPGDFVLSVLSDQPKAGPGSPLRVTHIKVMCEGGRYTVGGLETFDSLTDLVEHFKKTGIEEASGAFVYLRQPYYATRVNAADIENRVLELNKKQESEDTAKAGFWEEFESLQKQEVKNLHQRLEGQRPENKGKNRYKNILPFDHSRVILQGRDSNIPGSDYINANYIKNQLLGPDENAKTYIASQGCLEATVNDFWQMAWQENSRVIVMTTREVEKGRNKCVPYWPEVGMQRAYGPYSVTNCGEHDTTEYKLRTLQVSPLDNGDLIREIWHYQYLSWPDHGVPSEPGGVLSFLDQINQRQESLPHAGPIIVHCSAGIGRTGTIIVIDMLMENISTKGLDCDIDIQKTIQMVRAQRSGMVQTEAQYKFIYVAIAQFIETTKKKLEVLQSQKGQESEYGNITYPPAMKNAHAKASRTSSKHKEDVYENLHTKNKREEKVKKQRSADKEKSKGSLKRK

SMILES: Cc1c(C)c2c(c(C)c1O)CC[C@@](C)(CCC[C@H](C)CCC[C@H](C)CCCC(C)C)O2 [VitE, D-α-Tocopherol]
- IFNγ+CD8+ T cells in coculture (human IFN-γ+CD8+ T cells): increased autologous IFNγ+CD8+ cytotoxic T cells
- Kd (purified SHP1): 39 µM
- IC50 [1]: 50 to 200 µM
